From patent publication US12209112B2, “Methods of preventing or treating diseases, conditions, or disorders associated with chemotherapy” (The Chinese University of Hong Kong, priority 2022, dated 2025)

Tests used:
C57BL/6J male mice [1] = type: in vivo, mouse; conditions: mice; pretreatment before doxorubicin
Protocol: (§1) Recombinant human GDF15/MIC-1 protein (CHO-derived) was purchased from PeproTech Inc. (Cranbury, USA) and described in Example 1. […] For in vitro studies, solid lyophilized powder of these two drugs were solubilized at the recommended concentrations in sterile water, and separate aliquots were made and frozen until thawing prior to addition to cell cultures. For in vivo studies, all agents were dissolved in […] normal saline according to the required concentrations (doxorubicin, 5 mg/kg; GDF15, 0.5 mg/kg; dexrazoxane, […]), and the final volume of each intraperitoneal injection was 100 μl. The recommended dose ratio of dexrazoxane to doxorubicin was 10 to 1. In the following examples, 5 mg/kg of doxorubicin was used which correspond to 50 mg/kg of dexrazoxane. The FDA recommends that dexrazoxane be injected within 0.5 hour prior to doxorubicin infusion in individuals. This was followed in the same manner when applying to the test animals.
To induce cardiotoxicity in the mouse, four weekly intraperitoneal injections of doxorubicin at 5 mg/kg were administered. After one dose of doxorubicin at 5-6 mg/kg in a mouse, the level of exposure has been estimated to be similar to that of a human individual being given a standard dose of doxorubicin at approximately 60 mg/m^2. Previous studies have shown that mice injected with doxorubicin once a week at 5 mg/kg for four weeks developed cardiotoxicity, as evidenced by decreased ventricular ejection fraction, cardiomyocyte apoptosis, histopathological changes consistent with doxorubicin-induced myocardial damage, and increased mortality rate, compared with the control group.
The hearts of mice were collected after sacrifice and fixed in 4% paraformaldehyde overnight, followed by paraffin embedding. Afterwards the hearts were cut into 4 μm thick slices. Sections were deparaffinized and rehydrated using sequential immersion in 100% alcohol, 95% alcohol and 70% alcohol for 15 minutes each. […]

C57BL/6J male mice [2] = assay: TUNEL staining of mouse myocardium (cardiomyocyte apoptosis); type: in vivo; conditions: pretreatment before doxorubicin
Protocol: as §1
(§2) To induce cardiotoxicity in the mouse, four weekly intraperitoneal injections of doxorubicin at 5 mg/kg were administered. After one dose of doxorubicin at 5-6 mg/kg in a mouse, the level of exposure has been estimated to be similar to that of a human individual being given a standard dose of doxorubicin at approximately 60 mg/m^2. […]

C57BL/6J male mice [3] = assay: Noninvasive blood pressure in mouse doxorubicin cardiotoxicity model; type: in vivo; conditions: for Day 28 DBP / Day 28 SBP: after doxorubicin 5 mg/kg intraperitoneal once weekly for four weeks (Dox + groups); for Day 28 DBP / Day 28 SBP / Day 0 DBP / Day 0 SBP: n = 4 per group; for Day 0 DBP / Day 0 SBP: before doxorubicin administration
From the text: Recombinant human GDF15/MIC-1 protein (CHO-derived) was purchased from PeproTech Inc. (Cranbury, USA) and described in Example 1. […] PubChem identifier number 71384) were purchased from Abcam (Cambridge, UK). For in vitro studies, solid lyophilized powder of these two drugs were solubilized at the recommended concentrations in sterile water, and separate aliquots were made and frozen until thawing prior to addition to cell cultures. […] The recommended dose ratio of dexrazoxane to doxorubicin was 10 to 1. In the following examples, 5 mg/kg of doxorubicin was used which correspond to 50 mg/kg of dexrazoxane. The FDA recommends that dexrazoxane be injected within 0.5 hour prior to doxorubicin infusion in individuals. This was followed in the same manner when applying to the test animals. Ten- to twelve-week old C57BL/6J male mice were purchased from the Laboratory Animal Services Centre of CUHK. They were maintained in specific pathogen-free facility of the CUHK Laboratory Animal Services Centre Research Unit at Prince of Wales Hospital with free access to food and water and maintained in a light/night cycle of 12 hours/12 hours. All mice were fed a standard diet. Blood pressure of animals was measured using the noninvasive CODA® High Throughput System (Torrington, USA) in accordance with the manufacturer's instructions. Measurement platform was prewarmed and maintained at 33-35° C. O-cuffs and VPR-cuffs were used as instructed. Blood pressure of each mouse was measured for at least three cycles. Mice were released and returned to their cages immediately after measurement. Blood pressure was measured twice, once at the beginning of the experiment and once before sacrifice. To induce cardiotoxicity in the mouse, four weekly intraperitoneal injections of doxorubicin at 5 mg/kg were administered. After one dose of doxorubicin at 5-6 mg/kg in a mouse, the level of exposure has been estimated to be similar to that of a human individual being given a standard dose of doxorubicin at approximately 60 mg/m^2.

hESC-CMs = assay: α-actinin immunostaining for sarcomeric integrity; type: cell-based, human; conditions: hESC-CMs; agent only, no doxorubicin
Protocol: hESC-CMs were permeabilized using 0.1% Triton X-100 (Thermo Fisher Scientific, USA). After permeabilizing for 15 minutes, cells were washed three times in PBS, and further permeabilization was blocked by incubating cells in PBS with 10% FBS (Hyclone, USA) for 1 hour at room temperature. Cells were incubated with the primary anti-actinin antibody (1:400) (Abcam, UK) and diluted in PBS with 10% FBS overnight. Cells were then washed three times with PBS and incubated with a goat anti-mouse IgG1 secondary antibody (1:1000 diluted in PBS with 10% FBS) (Thermo Fisher Scientific, USA) for 1 hour at room temperature. Finally, cells were washed twice with PBS and mounted using ibidi mounting medium with DAPI (Ibidi, Germany). Microscopic images were acquired using the DMi8s Research Inverted Thunder Imager Live Cell System (Leica, Germany) at 20×, 40×, and 100× magnification.

C57BL/6J male mice [4] = type: in vivo, mouse; conditions: mice; pretreatment before doxorubicin, versus doxorubicin only
Protocol: as §1, §2
The image processing and analysis software, ImageJ version 1.53K, was used for evaluation of histopathology from mouse experiments. For Masson's trichrome staining, the acquired images were converted from color to grayscale using ImageJ, the blue-stained collagen were segmented (separated) using thresholding, and the threshold areas in a representative microscopic field were quantified. […] Cells containing brown staining (TUNEL-positive cells) were counted in a representative microscopic field for each mouse in each group.

Molecule: C[C@@H](CN1CC(=O)NC(=O)C1)N1CC(=O)NC(=O)C1.Cl [Dex, 4,4′-[(1S)-1-Methyl-1,2-ethanediyl]bis-2,6-piperazinedione hydrochloride, reference compound]
- myocardial histopathology (hematoxylin and eosin) (C57BL/6J male mice [1]): similarly improved
- cardiomyocyte death by apoptosis (TUNEL staining) (C57BL/6J male mice [2]): reduced extent of cardiomyocyte death by apoptosis
- Day 28 DBP (C57BL/6J male mice [3]): 84 ± 15 mmHg
- Day 28 SBP (C57BL/6J male mice [3]): 108 ± 13 mmHg
- Day 0 DBP (C57BL/6J male mice [3]): 78 ± 26 mmHg
- Day 0 SBP (C57BL/6J male mice [3]): 114 ± 14 mmHg
- sarcomere structure (α-actinin immunostaining) (hESC-CMs): well-organized, striated sarcomeres
- cardiac fibrosis (Masson's trichrome) (C57BL/6J male mice [4]): visually and quantitatively reduced

B1: GDF15 + Dox: mice given recombinant human GDF15 pretreatment followed by doxorubicin (protein, UniProt Q99988 195-308, looked up)
Growth/differentiation factor …: ARARNGDHCPLGPGRCCRLHTVRASLEDLGWADWVLSPREVQVTMCIGACPSQFRAANMHAQIKTSLHRLKPDTVPAPCCVPASYNPMVLIQKTDTGVSLQTYDDLLAKDCHCI
modifications: given with doxorubicin
- systolic and diastolic blood pressures compared with Dex+Dox group (C57BL/6J male mice [3]; Day 28): lower than that of Dex+Dox treatment group
- Day 28 DBP (C57BL/6J male mice [3]): 85 ± 13 mmHg
- Day 28 SBP (C57BL/6J male mice [3]): 111 ± 15 mmHg
- Day 0 DBP (C57BL/6J male mice [3]): 76 ± 25 mmHg
- Day 0 SBP (C57BL/6J male mice [3]): 108 ± 27 mmHg
